From patent publication US8518952B2, “6 substituted 2-heterocyclylamino pyrazine compounds as CHK-1 inhibitors” (Pfizer Inc., priority 2008, dated 2013)
Read-outs that look alike come from different tables or passages of the source.

Key:
[1] = test system: HeLa cells; assay: Histone H3 (Ser10) phosphorylation ELISA, abrogation of camptothecin-induced G2 arrest (CHK-1 cellular assay); type: cell-based
Description: The Histone H3 phosphorylation ELISA assay detects cells entering mitosis and represents the primary in vitro cell-based assay used to measure the cellular potency of compounds in abrogating the G2 check point induced by DNA damage in HeLa cells or MiaPaCa cells. The candidate substances were assayed for potency in their ability to inhibit camptothecin-induced G2 arrest, as measured by an increase in Histone H3 phosphorylation on Ser10, a marker of entry into mitosis.
Tissue culture plates were seeded with HeLa cells or MiaPaCa Cells and allowed to attach overnight. The cells were then treated with camptothecin to induce DNA damage for 8 hrs. Candidate substances or diluent were then added in the presence of nocodozole for 16 hours. […] The fresh whole cell lysates were then thawed and added to the ELISA plate with shaking for 3 hours. Between all subsequent steps plates were washed 4 times with PBST. Biotinylated phospho Histone H3 (ser10) detection antibody was added for 1 hour, followed by addition of horseradish peroxidase-linked streptavidin secondary antibody for 1 hour. Color development of the antibody was performed with addition of TMB substrate and incubation for 2 minutes on a plate shaker. […] EC50 values were calculated by sigmoid curve fitting using a four-parameter analysis.
(§1) Under the “Ki” column, data entries in the format of “%” are percent inhibition data where no Ki data is available. Data entry under the “EC50” column with an * are data obtained using Mia Paca-2 cells rather than HeLa cells. Data is not available where noted as n/a.

[2] = biological target: T1, CHK1 (kinase domain) (Homo sapiens, UniProt O14757); assay: CHK1 Ki determination, spectrophotometric coupled (pyruvate kinase/lactate dehydrogenase) assay; type: biochemical; conditions: CHK-1 kinase domain; for percent inhibition (where no Ki data is available): inhibitor concentration not given; for Ki: 150 uM ATP, 125 uM Syntide 2
T1 construct: a solution containing 1 nM of CHK1 (kinase domain)
T1 sequence (O14757 9-265 limits assumed): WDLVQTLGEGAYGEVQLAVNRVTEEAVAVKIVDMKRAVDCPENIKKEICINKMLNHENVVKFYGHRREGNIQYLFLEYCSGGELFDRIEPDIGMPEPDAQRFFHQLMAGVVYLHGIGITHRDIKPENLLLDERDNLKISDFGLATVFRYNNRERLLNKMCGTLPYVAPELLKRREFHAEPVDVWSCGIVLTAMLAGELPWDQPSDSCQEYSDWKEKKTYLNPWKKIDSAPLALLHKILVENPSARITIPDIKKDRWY
Description: After 15 min pre-incubation, the enzymatic reaction was initiated by the simultaneous addition of Syntide 2 peptide (125 uM, final concentration) and ATP (150 uM, final concentration). The kinase-catalyzed production of ADP from ATP that accompanied phosphoryl transfer to the substrate Syntide 2 was coupled to the oxidation of NADH through the activities of pyruvate kinase and lactate dehydrogenase. NADH conversion to NAD^+ was monitored by the decrease in absorbance at 340 nm (ε=6.22 cm^−1 mM^−1) using a microplate reader from Molecular Devices Spectormax Plus (Sunnyvale, Calif.) or BMG LABTECH Inc (Offenburg, Germany).
The inhibition of CHK1 was analyzed by fitting the data to the following equation to determine Kiapp:
[formula] where [E]o and [I]o are the active enzyme and inhibitor concentration, respectively; Ki is the inhibition binding constant and Km the Michaelis-Menten constant for ATP; Vi and Vo are the rates of substrate oxidation in the presence of and in the absence of inhibitor, respectively. EC50 Determination (Cellular Assay)
as §1

[3] = Homo sapiens, HeLa, HeLa cells, camptothecin 8 hrs, then compound with nocodozole 16 hours, read-out: EC50
[4] = HeLa cells, camptothecin 8 hrs, then compound with nocodozole 16 hours, read-out: EC50

Compound	EC50 [1, 3] [µM]	percent inhibition (where no Ki data is available) [2]	Ki [2] [µM]	EC50 ([1]; Homo sapiens, HeLa) [µM]	EC50 [1, 4] [µM]
F[C@H]1CNC[C@@H]1Nc1cncc(-c2cnc3ccccn23)n1 (relative stereo) [Example 46, Trans N-[4-fluoropyrrolidin-3-yl]-6-imidazo[1,2-a]pyridin-3-ylpyrazin-2-amine]	7.97	29.7%^	–	–	–
Cc1cn2c(-c3cncc(N[C@@H]4CC[C@@H](C)NC4)n3)cnc2s1 (relative stereo) [Example 61, Trans 6-(2-Methylimidazo[2,1-b][1,3]thiazol-5-yl)-N-(6-methylpiperidin-3-yl)pyrazin-2-amine]	0.119	–	0.0379	–	–
Cc1cn2c(-c3cncc(N[C@@H]4CC[C@H](C)NC4)n3)cnc2s1 (relative stereo) [Example 62, Cis 6-(2-Methylimidazo[2,1-b][1,3]thiazol-5-yl)-N-(6-methylpiperidin-3-yl)pyrazin-2-amine]	0.694	–	0.0735	–	–
c1ccc2c(c1)ncn2-c1cncc(N[C@@H]2CCCNC2)n1 [Example 1, 6-(1H-benzimidazol-1-yl)-N-[(3R)-piperidin-3-yl]pyrazin-2-amine]	–	–	0.0132	0.0703	–
c1ccn2c(-c3cncc(N[C@@H]4CCCNC4)n3)cnc2c1 [Example 2, 6-Imidazo[1,2-a]pyridin-3-yl-N-[(3R)-piperidin-3-yl]pyrazin-2-amine]	–	–	0.00324	0.0343	–
c1ccn2c(-c3cncc(N[C@H]4CCCNC4)n3)cnc2c1 [Example 3, 6-Imidazo[1,2-a]pyridin-3-yl-N-[(3S)-piperidin-3-yl]pyrazin-2-amine]	0.486	0%	–	–	–
c1ccn2ncc(-c3cncc(N[C@@H]4CCCNC4)n3)c2c1 [Example 6, N-[(3R)-piperidin-3-yl]-6-pyrazolo[1,5-a]pyridin-3-ylpyrazin-2-amine]	0.0318	–	0.00254	–	–
C[C@@H]1CC[C@@H](Nc2cncc(-n3cnc4cc(OCC5(C)COC5)ccc43)n2)CN1 [Example 9, 6-{5-[(3-Methyloxetan-3-yl)methoxy]-1H-benzimidazol-1-yl}-N-[(3R,6R)-6-methylpiperidin-3-yl]pyrazin-2-amine]	≥ 10	–	0.131	–	–
c1ccn2c(-c3cncc(N[C@@H]4CCNC4)n3)cnc2c1 [Example 10, 6-Imidazo[1,2-a]pyridin-3-yl-N-[(3R)-pyrrolidin-3-yl]pyrazin-2-amine]	0.244	–	0.0236	–	–
FC1(F)CCNCC1Nc1cncc(-c2cnc3ccccn23)n1 (stereo not drawn) [Example 11, N-(4,4-difluoropiperidin-3-yl)-6-(imidazo[1,2-a]pyridin-3-yl)pyrazin-2-amine]	0.0621	101%^	–	–	–
C[C@@H]1CNC[C@@H]1Nc1cncc(-c2cnc3ccccn23)n1 [Example 12, 6-Imidazo[1,2-a]pyridin-3-yl-N-[(3R,4R)-4-methylpyrrolidin-3-yl]pyrazin-2-amine]	0.0684	–	0.0275	–	–
CC(C)Oc1ccc2ncn(-c3cncc(N[C@@H]4CCNC4)n3)c2c1 [Example 15, 6-[6-(propan-2-yloxy)-1H-benzimidazol-1-yl]-N-[(3R)-pyrrolidin-3-yl]pyrazin-2-amine]	≥ 10	43.5%^	–	–	–
Cc1cn2c(-c3cncc(N[C@@H]4C[C@@H]5CN[C@H]4C5)n3)cnc2s1 [Example 85, (1S,4R,6R)-2-Aza-bicyclo[2.2.1]hept-6-yl-[6-(2-methyl-imidazo[2,1-b]thiazol-5-yl)-pyrazin-2-yl]-amine]	–	–	–	–	0.795
Cc1cn2c(-c3cncc(N[C@@H]4C[C@@H]5CN[C@H]4C5)n3)cnc2s1 [Example 125, (1S,4R,6R)-N-[6-(2-methylimidazo[2,1-b][1,3]thiazol-5-yl)pyrazin-2-yl]-2-azabicyclo[2.2.1]heptan-6-amine]	–	–	–	–	0.035
C[C@H]1NCCC[C@H]1Nc1cncc(-c2cnc3ccccn23)n1 [Example 138, 6-imidazo[1,2-a]pyridin-3-yl-N-[(2R,3R)-2-methylpiperidin-3-yl]pyrazin-2-amine]	–	–	–	–	0.188
